{"source": "paper PMC5218480", "about": "(PLoS ONE, 2017)", "test_system": "MV-4-11 cells", "test": "Gene expression microarray analysis (Affymetrix PrimeView) and GSEA", "format": "cell-based, human", "details": "MV-4-11, 48 hours, 1 μM each", "data": [{"smiles": "Nc1ncn([C@@H]2O[C@H](CO)[C@@H](O)[C@H]2O)c(=O)n1", "note": "[azacitidine]", "values": [{"measurement": "genes up-regulated greater than 2-fold relative to vehicle control", "result": 62, "unit": "genes"}]}]}
